Measured values reported in US11382884B2, “Method for reducing lung infection” (priority 2017, dated 2022).
Read-outs that look alike come from different tables or passages of the source.

Legend:
P. aeruginosa [1] = settings: in vivo; cited from earlier work
[2] = Protocol: (§1) Subjects are then discharged and treatment continued twice a day for four weeks. Subjects are monitored for a further four weeks, bringing the total study time to 10 weeks. Sputum is collected by induction with nebulised 3% hypertonic saline at 8-10 L/min for […]. Samples are collected prior to treatment, and at 2, 6 and 10 weeks, processed according to the relevant protocol and stored at −80° C.
Expectorated sputum is stored in RNAlater, total RNA is extracted using a Qiagen RNEasy® or similar extraction kit, converted into cDNA, and inflammatory markers are monitored using qPCR as described by Sivaneson et al. (Sivaneson, M., Mikkelsen, H., Ventre, I., Bordi, C., and Filloux, A. (2011). Two-component regulatory systems in Pseudomonas aeruginosa: an intricate network mediating fimbrial and efflux pump gene expression. Mol Microbiol 79, 1353-1366) and quantified relative to known housekeeping genes, such as actin and/or GAPDH.
(§2) Expectorated sputum is frozen directly without processing and assayed for inflammatory markers as above. As a measure of structural damage, levels of matrix metalloproteinases (MMPs) and tissue inhibitors of metalloproteinases (TIMPs) are measured using gelatin zymography and immunoassays, respectively, as previously described (Gaggar et al., Eur Respir J. 2011 38(3): 721-727; Garratt et al., Eur Respir J. 2015 46(2):384-94). The amount of iron in the sputum is quantified by ICP-MS as previously described (Hunter et al., MBio 2013, 4(4):1-8). The amount of iron-binding proteins is assessed using immunoassays. Oxidative stress is assessed by measuring glutathione (GSSG and GSH) using immunoassays as previously described (Kettle et al., Eur Respir J. 2014 44(1):122-9).

[3] = remark: listed apart in the source
Protocol: as §1
Expectorated sputum is stored in RNAlater®, total RNA is extracted using a Qiagen RNEasy® or similar extraction kit, converted into cDNA, and inflammatory markers are monitored using qPCR as described by Sivaneson et al. (Sivaneson, M., Mikkelsen, H., Ventre, I., Bordi, C., and Filloux, A. (2011). Two-component regulatory systems in Pseudomonas aeruginosa: an intricate network mediating fimbrial and efflux pump gene expression. Mol Microbiol 79, 1353-1366) and quantified relative to known housekeeping genes, such as actin and/or GAPDH.
as §2, with “MBio. 2013” for “MBio 2013,”

[4] = in vivo; cited from earlier work
[5] = remark: listed apart in the source
Protocol: A single centre, randomised, double blind, crossover study of cystic fibrosis subjects is carried out. Subjects are randomised for treatment with inhaled CaEDTA or saline (placebo) 2-4 times a day for two weeks.
Iron levels, inflammatory markers, MMP/TIMP and FEV1 are monitored as above. Myeloperoxidase activity are also assayed as a measure of neutrophilic inflammation as previously described (Gaggar et al., 2011). 3-chlorotyrosine is measured as a biomarker of the potent oxidant hypochlorous acid. Levels are measured using stable isotope dilution gas chromatography with mass spectrometry (Gaggar et al., 2011). Protein carbonyls are measured as an indicator of ROS using a commercial immunoassay kit (Gaggar et al., 2011).

[6] = remark: listed apart in the source
Protocol: Subjects were then discharged and treatment was continued twice a day for four weeks. Patients were monitored for a further four weeks, bringing the total study time to 10 weeks. At each study visit, lung function was measured by spirometry. Data was recorded as the best of three attempts, and results were expressed as % predicted.

[7] = remark: listed apart in the source
Protocol: Subjects with CF who need treatment with dry powder tobramycin are allocated into four cohorts and receive 112 mg dry powder twice a day for 28 days. In addition, Cohort 1 (patients>18 years) receives ascending doses of dry powder CaEDTA (37.5 mg BID for 1 week; 75 mg BID for 2 weeks, 150 mg BID for 1 week). Patients in cohort 2 (>18 years) receive CaEDTA (37.5 mg BID for 1 week; 75 BID for 2 weeks; 75 mg QID for 1 week). Patients in cohort 3 (12-18 years) receive CaEDTA (37.5 mg BID for 1 week; 75 mg BID for 2 weeks, 150 mg BID for 1 week. Finally, a control cohort receives tobramycin alone for 28 days.
Sputum samples are collected weekly and assessed for markers of infection and inflammation. Bacteria are monitored by sputum colony counts. As a measure of structural damage, levels of matrix metalloproteinases (MMPs) and tissue inhibitors of metalloproteinases (TIMPs) are measured using gelatin zymography and immunoassays, respectively, as previously described (Gaggar et al., Eur Respir J. 2011 38(3): 721-727; Garratt et al., Eur Respir J. 2015 46(2):384-94). The amount of iron in the sputum is quantified by ICP-MS as previously described (Hunter et al., 2013). The amount of iron-binding proteins is assessed using immunoassays. Myeloperoxidase activity is also assayed as a measure of neutrophilic inflammation as previously described (Gaggar et al., 2011). 3-chlorotyrosine is measured as a biomarker of the potent oxidant hypochlorous acid. Levels are measured using stable isotope dilution gas chromatography with mass spectrometry (Gaggar et al., 2011). Protein carbonyls are measured as an indicator of reactive oxygen species (ROS) using a commercial immunoassay kit (Gaggar et al., 2011). Oxidative stress is assessed by measuring glutathione (GSSG and GSH) using immunoassays as previously described (Kettle et al., 2014). Gene expression of inflammatory and oxidative stress markers (e.g. IL-8, IL-6, TNFa) will also be monitored by Nanostring, and proteins will be measured by ELISA. Oxidative stress can also be measured via metabolites, such as molondialdehyde (colorimetric assay) or 8-isoprostane (ELISA). Iron will be measured by elemental analysis using laser ablation-inductively coupled plasma-mass spectrometry (LA-ICP-MS).

P. aeruginosa [8] = settings: after two weeks of treatment, 300 mg EDTA/day nebulised with tobramycin; sputum; FIG. 25
Text: Patients were monitored for a further four weeks, bringing the total study time to 10 weeks.

[9] = in vivo; cited from earlier work; remark: listed apart in the source
[10] = EDTA group compared with placebo group

## O=C(O)CN(CCN(CC(=O)O)CC(=O)O)CC(=O)O [EDTA, ethylene diamine tetraacetic acid]
P. aeruginosa [1]
  treatment of bacterial infections by inhaled EDTA alone: does not treat bacterial infections
[2]; [10]
  gene expression of inflammatory markers (qPCR, sputum): mean reduction
  inflammatory markers in sputum: reduction
[2]; compared with placebo (carrier only)
  FEV1: increase
[2]; especially MMP-9 and TIMP-1
  balance between MMPs and TIMPs: change in the balance
[2]; human, in vivo
  iron levels in sputum: decrease
[3]; [10]
  gene expression of inflammatory markers (qPCR, sputum): mean reduction
  inflammatory markers in sputum: reduction
[3]; especially MMP-9 and TIMP-1
  balance between MMPs and TIMPs: change in the balance
[4]
  effect on FEV1: no effect on FEV1
[5]; compared with placebo
  MMP/TIMP balance: altered
  levels of inflammatory markers: reduced levels
  levels of iron: reduced levels
  mean FEV1: increased
[5]; human, in vivo
  mean levels of carbonyls: lower mean levels
  mean levels of chlorotyrosine: lower mean levels
  myeloperoxidase activity: reduced
[6]; 2, 6 and 10 weeks after start of treatment, FIG. 26
  mean change in FEV1: clear improvement in lung function
[6]; mg EDTA/kg body weight, FIG. 27
  dose dependence of effect on lung function: dose-dependent effect on lung function
[7]; [10]
  inflammatory markers in sputum: reduction
[7]; compared with control patients
  FEV1: increase
  bacterial load in sputum: reduction
[7]; especially MMP-9 and TIMP-1
  balance between MMPs and TIMPs: change in the balance
[7]; human, in vivo
  iron levels in sputum: decrease
P. aeruginosa [8]
  reduction in colony counts: > 400 fold
[9]
  bronchoconstriction: concentration-dependent bronchoconstriction
